Test results as given in ChEMBL document CHEMBL1134390, “Comparative molecular field analysis of dopamine D4 receptor antagonists including 3-[4-(4-chlorophenyl)piperazin-1-ylmethyl]pyrazolo[1,5-a]pyridine (FAUC 113), 3-[4-(4-chlorophenyl)piperazin-1-ylmethyl]-1H-pyrrolo-[2,3-b]pyridine (L-745,870), and clozapine” (J Med Chem, 2001).

Each compound was assayed against T1, D(4) dopamine receptor (Homo sapiens) (UniProt P21917). Details: CHO-K1.
T1 sequence (whole entry): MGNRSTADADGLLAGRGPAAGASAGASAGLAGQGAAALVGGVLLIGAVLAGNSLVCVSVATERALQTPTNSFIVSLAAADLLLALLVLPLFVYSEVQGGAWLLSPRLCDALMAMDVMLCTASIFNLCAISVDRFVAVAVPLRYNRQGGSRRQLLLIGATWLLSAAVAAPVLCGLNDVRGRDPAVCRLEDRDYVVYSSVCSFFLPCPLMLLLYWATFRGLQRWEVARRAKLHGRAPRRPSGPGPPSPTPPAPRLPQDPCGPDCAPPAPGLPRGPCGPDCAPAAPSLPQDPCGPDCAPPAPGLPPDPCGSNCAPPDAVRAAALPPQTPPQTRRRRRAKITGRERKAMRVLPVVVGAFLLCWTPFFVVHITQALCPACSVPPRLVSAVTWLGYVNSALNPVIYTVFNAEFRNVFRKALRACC
Description: Ability to displace [3H]spiperone from dopamine receptor D4.4 expressed in CHO-K1 cells

SMILES	pKi
Clc1ccc(N2CCN(Cc3cnn4ccccc34)CC2)cc1Cl	8.25
Clc1cccc(N2CCN(Cc3cnn4ccc5ccccc5c34)CC2)c1	6.1
Clc1ccc(N2CCN(Cc3ccccc3)CC2)cc1	6.6
OCc1ccc2c(CN3CCN(c4ccccc4)CC3)cnn2c1	7.71
Clc1ccc(N2CCN(Cc3cc[nH]c3)CC2)cc1	7.41
Clc1cccc(N2CCN(Cc3cnn4c3ccc3ccccc34)CC2)c1	6.66
Clc1ccc(N2CCN(Cc3cc4ccccc4[nH]3)CC2)cc1	7.74
Ic1ccc(N2CCN(Cc3cnn4ccccc34)CC2)cc1	8.52
Fc1ccc(N2CCN(Cc3cnn4ccccc34)CC2)cc1	7.7
C#Cc1cccc2c(CN3CCN(c4ccc(Cl)cc4)CC3)cnn12	8.91
N#CC(C#N)=Cc1cc(CN2CCN(c3ccc(Cl)cc3)CC2)c[nH]1	8.24
N#CC(C#N)=Cc1ccc(CN2CCN(c3ccc(Cl)cc3)CC2)[nH]1	8.02
FC(F)(F)c1cccc(N2CCN(Cc3cnn4ccccc34)CC2)c1	8.72
Cc1cccc2c(CN3CCN(c4ccc(Cl)cc4)CC3)cnn12	8.57
Clc1ccc(N2CCN(Cc3ccc[nH]3)CC2)cc1	7.58
Cc1cccn2ncc(CN3CCN(c4ccc(Cl)cc4)CC3)c12	7.3
Clc1ccc(N2CCN(Cc3cc4ccccn4n3)CC2)cc1	8.66
Clc1ccc(N2CCN(Cc3cnn4c(I)cccc34)CC2)cc1	8.3
CCN1CCN(Cc2cnn3ccccc23)CC1	4.62
C#Cc1ccc(N2CCN(Cc3cnn4ccccc34)CC2)cc1	8.36
